In patent publication US11613531B2, “Inhibitors of RHO associated coiled-coil containing protein kinase” (Kadmon Corporation, LLC, priority 2017, dated 2023):

Columns and labels:
[1] = system: human ACTA2 gene promoter luciferase reporter in NIH3T3 cells; assay: NIH3T3 Acta2-promoter driven-luciferase assay; assay type: cell-based; settings: NIH3T3, 24 h, NIH3T3 cells, plus TGFβ1 for 24 hr; read-out: NIH3T3 Acta2-luc, IC50
Outline: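 NIH3T3 cells stably carrying a human ACTA2 promoter (−1000-1 bp)-luciferase reporter, grown to confluence, treated 24 hr with compound plus TGFβ1 at 9-point serial dilution. Luciferase read after lysis; IC50 by nonlinear regression.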

[2] = system: ppMlc (T18/S19) levels in A7R5 cells; assay: A7R5 in-cell ELISA (pMLC); assay type: cell-based, Rat; settings: Rattus norvegicus, A7R5, A7R5 cells
Outline: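 Cellular IC50 came from a nonlinear regression fit of ppMlc (T18/S19) signal, read by colorimetric in-cell ELISA on fixed cells. Rat A7R5 aortic smooth muscle cells had been exposed for 90 min to compounds in 9-point 2-fold serial dilution, 24 h after seeding.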

[3] = molecular target: Recombinant ROCK2 (amino acids 1-552) (Homo sapiens (Human), UniProt O75116); assay: Z′-Lyte kinase assay, ROCK2; assay type: biochemical; settings: 9 points 2-fold serial dilution
Outline: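 IC50s derive from nonlinear curve fits over a 9-point, 2-fold dilution series, with single-point inhibition at 1 μM expressed relative to DMSO. Activity of truncated human ROCK1 (residues 1-535) and ROCK2 (residues 1-552) measured with the Z′-Lyte kinase format.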

[4] = system: Bleomycin induced lung fibrosis in mice; assay: Prophylactic bleomycin induced lung fibrosis model; assay type: in vivo; settings: 21-day treatment
Description: FIG. 9a. ROCK inhibitor is active in a mouse model of pulmonary fibrosis. Representative images of lung sections stained with Masson's trichrome to visualized fibrosis in the lungs of mice following 21-day treatment with ROCK inhibitor in the bleomycin-induced lung injury model.
FIG. 9b. […] Ashcroft fibrotic indices, α-smooth muscle actin (αSMA) percentage positive area and total leukocytes count in bronchoalveolar lavage fluid obtained from lungs of mice in the bleomycin lung fibrosis model treated with compound of Example 192.
Prophylactic Efficacy of Compounds in Bleomycin Induced Lung Fibrosis in Mice
Male C57B/L6 mice were ear tagged and weighed prior to the start of the study. Treatment group animals were treated with the compound on day −1 pre-bleomycin and all subsequent days post-bleomycin administration. On day 0, animals in disease groups received 1.5 U/kg dose of bleomycin via oropharyngeal route. […] Animals were closely monitored daily till the end of the study. […] Blood samples were used for plasma preparation; total leukocytes were counted in BAL fluid; and lungs were fixed in 10% neutral buffered formalin for histopathological analysis.
Based on the strong anti-fibrotic cellular activity of ROCK inhibitors of this invention, the ability of such inhibitors to attenuate fibrosis in the in vivo setting was assessed in several mouse models of disease. […]

[5] = system: phosphorylation of ROCK targets MLC and MYPT1 in A7R5 cells; assay: Western blot of A7R5 cell lysates (ppMlc, MYPT1); assay type: cell-based, Rat; settings: 110 nM, 90 min
Procedure: FIG. 1c. Western blot of A7R5 cell lysates to visualize ppMlc (T18/S19) levels following treatment with the compound of Example 192 (“Example 192”) for 90 min. A7R5 cells were treated with the compound and ppMlc (T18/S19) levels were visualized by western blotting.
A7R5 cells were treated with the compound of Example 192 for 90 min and ppMlc (T18/S19) levels were visualized by western blotting.

Recombinant ROCK2 (amino acids 1-552), sequence (O75116 1-552): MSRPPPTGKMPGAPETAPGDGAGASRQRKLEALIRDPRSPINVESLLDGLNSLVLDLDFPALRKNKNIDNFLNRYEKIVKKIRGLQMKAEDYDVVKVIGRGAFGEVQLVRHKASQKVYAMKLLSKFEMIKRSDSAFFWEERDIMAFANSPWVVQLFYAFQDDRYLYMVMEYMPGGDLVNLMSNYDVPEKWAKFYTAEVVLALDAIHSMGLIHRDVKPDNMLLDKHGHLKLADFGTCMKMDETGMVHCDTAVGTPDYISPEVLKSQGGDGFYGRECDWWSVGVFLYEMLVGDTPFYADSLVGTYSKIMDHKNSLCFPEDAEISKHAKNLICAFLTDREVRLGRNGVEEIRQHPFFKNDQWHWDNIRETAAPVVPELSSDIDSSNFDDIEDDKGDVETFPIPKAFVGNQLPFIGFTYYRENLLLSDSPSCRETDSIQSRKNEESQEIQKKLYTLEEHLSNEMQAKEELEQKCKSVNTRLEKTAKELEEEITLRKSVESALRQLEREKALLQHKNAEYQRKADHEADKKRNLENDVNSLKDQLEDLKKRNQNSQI

`Clc1cnc(N2C3CCC2CNC3)nc1Nc1ccc2[nH]ncc2c1` [Example 192, N-(2-(3,8-diazabicyclo[3.2.1]octan-8-yl)-5-chloropyrimidin-4-yl)-1H-indazol-5-amine] was tested, and the IC50 [1] was 189 nM, the inhibition at 1 µM ([2]; 1 μM compound, read-out: pMLC % inh A7R5 @ [conc]) was 53.5% and the IC50 ([2]; ppMlc (T18/S19)) was 98 nM. The IC50 [3] was 12 nM, the “activity in bleomycin lung fibrosis model (Ashcroft fibrotic indices, αSMA percentage positive area, total leukocytes count in BAL fluid)” value [4] was “positive activity” and the “phosphorylation of ROCK targets MLC and MYPT1” value [5] was “efficiently blocked”.
